We go through one molecule from PMC4916434, “Evaluation of the inhibition potential of plumbagin against cytochrome P450 using LC-MS/MS and cocktail approach” (Scientific Reports, 2016).

What is called IC50 is the concentration that gives 50% inhibition. For orientation: Ki means the equilibrium dissociation constant of an inhibitor or competing ligand from its target. Low readings indicate higher affinity, high ones lower affinity.

Type in all cases: in vitro ADME
The target in data set [1] is T1, CYP2E1 (Rattus norvegicus, UniProt P05182).
T1 construct: consisting of pooled HLMs (0.5 mg/ml) or RLMs (1 mg/ml) and an NADPH-regenerating system; from tissue; host or cells: rat liver microsomes prepared in house
The data set can be described thus: biochemical. The method, then: (§1) In this study, the rats were fasted overnight and killed by cervical dislocation before removal of the liver. The liver was excised, rinsed with ice-cold saline (0.9% NaCl w/v), weighed and homogenized in a […] Tris/KCl buffer (pH 7.4). Subsequently, the homogenate was centrifuged at 10,000 × g at 4 °C for 30 min. The supernatant was then centrifuged at 105,000 × g at 4 °C for 60 min. The pellet was reconstituted with […] Tris/KCl buffer (pH 7.4) and stored at −150 °C until use. The protein concentration of the liver microsomes was determined by a protein quantitative assay using bicinchoninic acid[22].
(§2) Microsomal incubation was carried out at 37 °C in a mixture of 200 μl in 0.05 M Tris/HCl buffer (pH 7.4) consisting of pooled HLMs (0.5 mg/ml) or RLMs (1 mg/ml) and an NADPH-regenerating system including MgCl2 (5 mM), G6P (10 mM), G6PDH (0.4 U/ml) and NADP (1 mM). Substrates were added into the incubation mixture and obtained the final concentrations (10 μM phenacetin for CYP1A2, 20 μM bupropion for CYP2B1/6, 20 μM tolbutamide for CYP2C9/11, 5 μM dextromethorphan for CYP2D1/6, 20 μM chlorzoxazone for CYP2E1 and 10 μM midazolam for CYP3A2/4), which were close to Km respectively. The proportion of organic solvent was not higher than 1% (v/v) in the incubation mixture. After pre-incubation for 5 min, the reaction was initiated by addition of NADP. Incubations were performed for 20 min, stopped by adding 200 μl ice-cold acetonitrile. And then 20 μl internal standard solution was added (3-acetamidophenol 2 μg/ml, chlorpropamide 2 μg/ml and mebendazole 2 μg/ml). The solution was mixed thoroughly for 3 min and centrifuged for 10 min at 16,000 × g at 4 °C. The supernatant (60 μl) was transferred to autosampler vials, and 2 μl was injected into LC-MS/MS system.
The IC50 (concentration of inhibitor to cause 50% inhibition of original enzyme activity) values were determined with the same incubation condition above. The specific concentrations of plumbagin were ranged from 0.1 μM to 50 μM. […]
All data were presented as mean ± SD. […] All results were analyzed in quadruplicate. […]

Data set [2] has as its target T2, CYP2D1 (Rattus norvegicus, UniProt P10633).
T2 construct: consisting of pooled HLMs (0.5 mg/ml) or RLMs (1 mg/ml) and an NADPH-regenerating system; from tissue; host or cells: rat liver microsomes prepared in house
T2 sequence (P10633 1-504): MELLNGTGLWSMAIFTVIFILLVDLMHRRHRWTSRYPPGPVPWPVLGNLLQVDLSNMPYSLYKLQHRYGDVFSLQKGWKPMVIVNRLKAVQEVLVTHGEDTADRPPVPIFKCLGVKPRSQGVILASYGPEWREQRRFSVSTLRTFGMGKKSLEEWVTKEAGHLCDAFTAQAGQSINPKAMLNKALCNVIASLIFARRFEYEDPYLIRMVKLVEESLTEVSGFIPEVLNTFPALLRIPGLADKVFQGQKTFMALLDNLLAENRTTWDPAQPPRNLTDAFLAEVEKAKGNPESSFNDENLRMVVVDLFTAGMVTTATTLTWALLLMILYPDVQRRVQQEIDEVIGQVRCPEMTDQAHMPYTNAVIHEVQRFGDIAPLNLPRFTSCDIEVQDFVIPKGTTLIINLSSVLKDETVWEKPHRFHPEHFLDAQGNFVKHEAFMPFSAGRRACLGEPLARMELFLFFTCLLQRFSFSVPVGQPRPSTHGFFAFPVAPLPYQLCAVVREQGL
The method, then:
as §1, §2
(§3) The IC50 (concentration of inhibitor to cause 50% inhibition of original enzyme activity) values were determined with the same incubation condition above. The specific concentrations of plumbagin were ranged from 0.1 μM to 50 μM. The IC50 values were calculated by plotting relative activities over the logarithm of plumbagin concentrations using GraphPad Prism 5.0 (GraphPad software Inc., CA, USA).
(§4) Cocktail probe substrates were then added and incubated for 20 min. Reactions were stopped with 200 μl ice-cold acetonitrile. The samples were treated according to the microsomal incubation method and then injected into LC-MS/MS for analysis.
(§5) Kinetic studies were performed for determining the types of inhibition on CYP by plumbagin. Pooled HLMs (0.5 mg/ml) or RLMs (1 mg/ml) with plumbagin (1 μM, 2 μM, 5 μM and 10 μM) were incubated in 0.05 M Tris/HCl buffer (pH 7.4) for 20 min at 37 °C. A series of concentrations for cocktail probe substrates were used: 2.5–20 μM phenacetin for CYP1A2; 5–40 μM bupropion for CYP2B1/6; 5–40 μM tolbutamide for CYP2C9/11; 1.25–10 μM dextromethorphan for CYP2D1/6; 5–40 μM chlorzoxazone for CYP2E1; 2.5–80 μM midazolam for CYP3A2; and 0.625–5 μM midazolam for CYP3A4. Enzyme kinetics as well as statistical analysis were performed using GraphPad Prism 5.0.
(§6) All data were presented as mean ± SD. The IC50 values were fitted by non-linear regression analysis using GraphPad Prism 5.0. The kinetic parameters were obtained by fitting velocity data to kinetic models (Michaelis-Menten) using GraphPad Prism 5.0. The Lineweaver-Burk Plot (the reciprocal of reaction velocities versus the reciprocal of substrates concentrations) was used to determine the quality of fit to a specific inhibition model. The inhibition constant (Ki) was obtained by a secondary plot using the slopes of the primary Lineweaver-Burk Plot (Km/Vmax versus inhibitor concentrations). αKi was obtained from a secondary plot using the y-intercepts of the Lineweaver-Burk plot (1/Vmax versus inhibitor concentrations). All results were analyzed in quadruplicate. One-way analysis of variance was used to estimate the significance of differences. […]

The target of data set [3] is T3, CYP2B1 (Rattus norvegicus, UniProt P00176).
T3 construct: consisting of pooled HLMs (0.5 mg/ml) or RLMs (1 mg/ml) and an NADPH-regenerating system; from tissue; host or cells: rat liver microsomes prepared in house
T3 sequence (P00176 1-491): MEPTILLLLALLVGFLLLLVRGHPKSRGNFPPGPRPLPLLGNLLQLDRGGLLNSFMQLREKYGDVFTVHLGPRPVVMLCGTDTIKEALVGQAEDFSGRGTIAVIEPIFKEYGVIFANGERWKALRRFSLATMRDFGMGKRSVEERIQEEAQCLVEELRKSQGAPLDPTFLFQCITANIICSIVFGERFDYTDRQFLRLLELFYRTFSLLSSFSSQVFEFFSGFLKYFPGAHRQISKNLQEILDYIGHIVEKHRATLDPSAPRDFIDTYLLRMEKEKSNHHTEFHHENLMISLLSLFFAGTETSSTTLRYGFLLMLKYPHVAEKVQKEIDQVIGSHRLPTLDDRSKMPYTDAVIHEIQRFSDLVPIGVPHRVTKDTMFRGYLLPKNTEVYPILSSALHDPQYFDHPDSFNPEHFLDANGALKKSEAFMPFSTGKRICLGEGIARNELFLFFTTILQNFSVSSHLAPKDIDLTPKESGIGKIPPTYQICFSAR
How it is done: as §1, §2, §3, §4, §5, §6

T1 sequence (P05182 whole entry): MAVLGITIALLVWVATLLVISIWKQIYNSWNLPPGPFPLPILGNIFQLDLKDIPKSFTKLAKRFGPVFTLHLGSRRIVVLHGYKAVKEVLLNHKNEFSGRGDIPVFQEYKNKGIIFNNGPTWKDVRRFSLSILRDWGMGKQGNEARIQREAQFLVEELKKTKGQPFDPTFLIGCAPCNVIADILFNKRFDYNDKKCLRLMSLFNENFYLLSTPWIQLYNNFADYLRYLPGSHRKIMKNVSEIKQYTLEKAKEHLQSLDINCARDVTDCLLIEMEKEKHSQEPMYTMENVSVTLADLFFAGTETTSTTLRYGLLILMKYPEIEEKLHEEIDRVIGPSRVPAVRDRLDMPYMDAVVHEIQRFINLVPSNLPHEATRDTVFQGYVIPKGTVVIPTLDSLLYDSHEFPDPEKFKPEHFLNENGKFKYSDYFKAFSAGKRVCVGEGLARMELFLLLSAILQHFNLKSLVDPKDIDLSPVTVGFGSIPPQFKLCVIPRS

On to `CC1=CC(=O)c2c(O)cccc2C1=O` [plumbagin, 5-hydroxy-2-methyl-1,4-naphthoquinone], for which, in data set [1], the IC50 was 3.72 µM, affinity was put at a Ki of 6.28 µM and the Type of inhibition result is listed as “competitive”. Moreover, in data set [2], half-maximal inhibition (IC50) was put at 6.17 µM; the affinity, expressed as Ki, was 9.49 µM; the Type of inhibition entry is “mixed-type”; the α worked out at 0.69. The αKi in data set [2] stood at 13.79 µM. Also, in data set [3], 5.86 µM corresponded to half-maximal inhibition (IC50), affinity was put at a Ki of 9.93 µM and the Type of inhibition result is “competitive”.
